Test results reported in patent publication US12473333B2, “Method for increasing ETEC CS6 antigen presentation on cell surface and products obtainable thereof” (Scandinavian Biopharma Holding AB, priority 2011, dated 2025).
Like-named read-outs stand apart in the source and are kept apart here.

System: CS6 expressing bacteria
Protocol: These inactivated bacteria were then used for oral immunizations of mice.
The suspensions were incubated for 2 h at 37° C. with shaking at 60 rpm, and then kept at 4° C. for 3 days without agitation. The bacterial suspensions were then centrifuged, washed, and re-suspended in the same volume of PBS and kept at 4° C. until use. In both inactivation methods, 0.1 ml of each suspension was spread onto blood agar and incubated at 37° C. for up to one week to check for lack of growth. Before being used for oral immunization, the level of CS6 on the inactivated bacteria was checked by inhibition ELISA.

SMILES: Oc1ccccc1 [phenol]
- killing of the bacteria (0.25% phenol): did not result in complete killing of the bacteria
- killing of the bacteria (0.5% phenol, data not shown): killed the tested bacteria
